# US12649750B2, “Macrocyclic compounds, compositions, and methods of using thereof” (Sionna Therapeutics Inc., priority 2022, dated 2026)
# Experiments:
# CFTR = biological target: T1, CFTR (Homo sapiens, UniProt P13569, DEL508-508); test: TECC24 AUC fold over DMSO @10 μM, CFTR-mediated transepithelial chloride transport in CF-HBE cells; format: cell-based; details: test agent AUC divided by DMSO vehicle AUC, primary CF-HBE cells, ΔF508 homozygous donor, 48 hours incubation
# T1 construct: Primary human bronchial epithelial cells from a ΔF508 homozygous CF donor; host or cells: primary human bronchial epithelial cells (CF-HBE), ΔF508 homozygous donor
# Protocol: Example 387. TECC24 AUC Fold Over DMSO @10 μM
# The effects of a test agent on CFTR-mediated transepithelial chloride transport is measured using TECC24 recording analysis. Test agents are solubilized in DMSO. Solubilized test agents are mixed with incubation medium containing DMEM/F12, Ultroser G (2%; Crescent Chemical, catalog #67042), Hyclone Fetal Clone II (2%; GE Healthcare, catalog #SH30066.02), bovine brain extract (0.25%; Lonza, catalog #CC-4098), insulin (2.5 μg/mL), IL-13 (10 ng/mL), hydrocortisone (20 nM), transferrin (2.5 μg/mL), triiodothyronine (500 nM), ethanolamine (250 nM), epinephrine (1.5 μM), phosphoethanolamine (250 nM), and retinoic acid (10 nM). Primary human bronchial epithelial cells from a ΔF508 homozygous CF donor (CF-HBE cells; from University of North Carolina Cystic Fibrosis Tissue Procurement Center), grown on Transwell HTS 24-well cell culture inserts (Costar, catalog #3378), are exposed to test agents or controls dissolved in incubation medium. The CF-HBE cells are cultured at 36.5° C. for 48 hours before TECC24 recordings are performed in the presence or absence of test agent, a positive control or vehicle (DMSO).
# Following incubation, the transwell cell culture inserts containing the test agent or control-treated CF-HBE cells are loaded onto a TECC24 apparatus (TECC v7 or MTECC v2; EP Design) to record the transepithelial voltage (VT) and resistance (TEER) using 4 AgCl electrodes per well configured in current-clamp mode. The apical and basolateral bath solutions both contain (in mM) 140 NaCl, 5 KCl, 2 CaCl2, 1 MgCl2, 10 Hepes, and 10 glucose (adjusted to pH 7.4 with NaOH). To inhibit basal Na+ absorption, the ENaC inhibitor benzamil (10 μM) is added to the bath. Then, the adenylate cyclase activator, forskolin (10 μM), is added to the bath to activate CFTR. The forskolin-stimulated Cl— transport is halted by addition of CFTR inhibitor-172 (20 μM) to the bath at the end of the experiment to confirm specificity. VT and TEER recordings are digitally acquired at routine intervals using TECC or MTECC software (EP Design). VT and TEER are transformed into equivalent transepithelial Cl— current (IEQ), and the Area Under the Curve (AUC) of the IEQ time course between forskolin and CFTR inhibitor-172 addition is generated using Excel (Microsoft). Efficacy is expressed as the ratio of the test agent AUC divided by vehicle AUC. EC50s based on AUC are generated using the non-linear regression log(agonist) vs. response function in Prism software (Graphpad) with HillSlope fixed=1.
# If a test agent increases the AUC of the forskolin-stimulated IEQ relative to vehicle in CF-HBE cells, and this increase is inhibited by CFTR inhibitor-172, then the test agent is considered a CFTR corrector. TECC assay efficacy is expressed as the ratio of the test agent AUC divided by DMSO vehicle AUC. As set forth in Table 2 below, a TECC value less than 12 is marked “A”; a value between 12-20 is marked “B”; a value between 20 and 80 is marked “C”. […]
# NBD1 = biological target: T2, NBD1 (Homo sapiens, UniProt P13569); test: Aggregation analysis using differential static light scattering (DSLS), thermal stability of NBD1 (ΔTagg); format: binding; details: ΔTagg versus DMSO control, NBD1 0.2 mg/ml
# T2 construct: Purified recombinant NBD1 was produced using previously described methods; made in house
# Summary of the method: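 Differential static light scattering read from 25° C. to 70° C. every 0.5° C., ramp 1° C./min, on recombinant NBD1 (0.2 mg/ml; Tris/NaCl/MgCl2 buffer with 2 mM ATP, 2 mM DTT, pH 7.6, 1% glycerol) plus compound. Reported ΔTagg subtracts averaged DMSO Tagg from inflection-point Tagg; categories A ≤5, B >5-10, C >10-25° C.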
# T2 sequence (P13569 423-646 limits assumed): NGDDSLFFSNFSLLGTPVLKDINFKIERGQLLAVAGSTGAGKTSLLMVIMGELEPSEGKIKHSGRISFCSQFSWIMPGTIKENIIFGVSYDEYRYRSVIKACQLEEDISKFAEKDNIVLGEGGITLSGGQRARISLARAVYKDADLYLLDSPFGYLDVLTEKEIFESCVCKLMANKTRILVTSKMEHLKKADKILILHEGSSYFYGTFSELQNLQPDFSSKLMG
# T1 sequence (P13569 with tags, fused parts or gaps DEL508-508): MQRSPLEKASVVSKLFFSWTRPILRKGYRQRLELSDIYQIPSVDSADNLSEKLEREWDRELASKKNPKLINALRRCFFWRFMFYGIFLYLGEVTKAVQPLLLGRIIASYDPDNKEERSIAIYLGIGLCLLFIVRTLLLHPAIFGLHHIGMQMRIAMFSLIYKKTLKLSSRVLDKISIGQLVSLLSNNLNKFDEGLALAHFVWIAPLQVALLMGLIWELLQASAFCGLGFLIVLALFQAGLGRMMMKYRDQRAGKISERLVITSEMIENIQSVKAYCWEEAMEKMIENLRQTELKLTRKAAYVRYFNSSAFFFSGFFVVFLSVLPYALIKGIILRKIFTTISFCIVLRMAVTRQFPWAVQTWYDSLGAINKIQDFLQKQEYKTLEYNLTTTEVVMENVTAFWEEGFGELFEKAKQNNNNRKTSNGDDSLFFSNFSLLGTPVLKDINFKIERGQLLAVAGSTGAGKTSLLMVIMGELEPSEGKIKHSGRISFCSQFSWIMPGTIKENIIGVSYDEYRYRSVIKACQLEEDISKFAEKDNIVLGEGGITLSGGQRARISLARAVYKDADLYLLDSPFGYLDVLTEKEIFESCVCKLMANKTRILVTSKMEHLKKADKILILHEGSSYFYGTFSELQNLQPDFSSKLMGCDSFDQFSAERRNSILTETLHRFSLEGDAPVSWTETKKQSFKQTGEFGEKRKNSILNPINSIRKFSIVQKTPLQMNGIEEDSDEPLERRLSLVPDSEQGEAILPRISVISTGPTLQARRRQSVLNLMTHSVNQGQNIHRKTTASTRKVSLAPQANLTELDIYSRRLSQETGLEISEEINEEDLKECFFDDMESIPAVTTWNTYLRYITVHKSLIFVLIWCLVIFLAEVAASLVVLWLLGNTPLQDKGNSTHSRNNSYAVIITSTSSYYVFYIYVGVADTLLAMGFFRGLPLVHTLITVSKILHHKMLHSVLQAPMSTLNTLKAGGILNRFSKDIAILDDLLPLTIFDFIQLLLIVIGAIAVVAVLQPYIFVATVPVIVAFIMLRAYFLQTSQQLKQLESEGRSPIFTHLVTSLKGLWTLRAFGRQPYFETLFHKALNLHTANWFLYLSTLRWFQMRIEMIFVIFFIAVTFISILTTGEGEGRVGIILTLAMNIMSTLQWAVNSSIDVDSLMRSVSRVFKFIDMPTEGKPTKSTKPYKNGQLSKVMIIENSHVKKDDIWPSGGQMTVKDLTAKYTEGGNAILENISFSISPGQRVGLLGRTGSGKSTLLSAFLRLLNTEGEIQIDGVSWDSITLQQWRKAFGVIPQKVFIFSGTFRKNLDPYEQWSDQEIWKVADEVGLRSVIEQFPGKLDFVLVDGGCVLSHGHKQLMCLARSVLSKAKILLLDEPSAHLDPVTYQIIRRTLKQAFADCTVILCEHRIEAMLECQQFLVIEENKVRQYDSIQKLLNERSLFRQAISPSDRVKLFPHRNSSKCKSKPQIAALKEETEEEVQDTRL
Structure (SMILES),"TECC (AUC, 10 μM) (CFTR)",DSLS 3D (100 μM ΔT) (NBD1)
"[2H]C([2H])([2H])n1nc2nc1-c1cc(ccc1F)Oc1c(F)cc3[nH]ccc3c1CCS(=O)(=O)CC(C)(C)CCCC2(C)c1cccc(OCC(=O)O)c1 (single isomer, unassigned) [Compound 1A, 2-[3-[22,28-Difluoro-6,10,10-trimethyl-12,12-dioxo-3-(trideuteriomethyl)-24-oxa-12λ^6-thia-3,4,19,30-tetrazapentacyclo[23.3.1.1^2,5.0^15,23.0^16,20]triaconta-1(29),2(30),4,15,17,20,22,25,27-nonaen-6-yl]phenoxy]acetic Acid]",C (a value between 20 and 80 is marked “C”),C (a value greater than 10 °C and less than or equal to 25 °C is marked “C”)
"[2H]C([2H])([2H])n1nc2nc1-c1cc(ccc1F)Oc1c(F)cc3[nH]ccc3c1CCS(=O)(=O)CC(C)(C)CCCC2(C)c1cccc(OCC(=O)O)c1 (single isomer, unassigned) [Compound 1B, 2-[3-[22,28-Difluoro-6,10,10-trimethyl-12,12-dioxo-3-(trideuteriomethyl)-24-oxa-12λ^6-thia-3,4,19,30-tetrazapentacyclo[23.3.1.1^2,5.0^15,23.0^16,20]triaconta-1(29),2(30),4,15,17,20,22,25,27-nonaen-6-yl]phenoxy]acetic Acid]",A (a TECC value less than 12 is marked “A”),A (an ΔTagg value less than or equal to 5 °C is marked “A”)
"Cn1nc2nc1-c1cc(ccc1F)Oc1c(F)cc3[nH]ccc3c1CCS(=O)(=O)CCC(F)(F)CCC2(C)c1cccc(CCC(=O)O)c1 (single isomer, unassigned) [Compound 2A, 3-[3-(9,9,22,28-Tetrafluoro-3,6-dimethyl-12,12-dioxo-24-oxa-12λ^6-thia-3,4,19,30-tetrazapentacyclo[23.3.1.1^2,5.0^15,23.0^16,20]triaconta-1(29),2(30),4,15,17,20,22,25,27-nonaen-6-yl)phenyl]propanoic Acid]",B (a value between 12-20 is marked “B”),B (a value above 5 °C and less than or equal to 10 °C is marked “B”)
"Cn1nc2nc1-c1cc(ccc1F)Oc1c(F)cc3[nH]ccc3c1CCS(=O)(=O)CCC(F)(F)CCC2(C)c1cccc(CCC(=O)O)c1 (single isomer, unassigned) [Compound 2B, 3-[3-(9,9,22,28-Tetrafluoro-3,6-dimethyl-12,12-dioxo-24-oxa-12λ^6-thia-3,4,19,30-tetrazapentacyclo[23.3.1.1^2,5.0^15,23.0^16,20]triaconta-1(29),2(30),4,15,17,20,22,25,27-nonaen-6-yl)phenyl]propanoic Acid]",A (a TECC value less than 12 is marked “A”),A (an ΔTagg value less than or equal to 5 °C is marked “A”)
"Cn1nc2nc1-c1cc(ccc1F)Oc1c(F)cc3[nH]ccc3c1CCS(=O)(=O)CC(C)(C)CCCC2(C)c1cccc(CCO)c1 (single isomer, unassigned) [Compound 4A, 2-[3-(22,28-Difluoro-3,6,10,10-tetramethyl-12,12-dioxo-24-oxa-12λ^6-thia-3,4,19,30-tetrazapentacyclo[23.3.1.1^2,5.0^15,23.0^16,20]triaconta-1(29),2(30),4,15,17,20,22,25,27-nonaen-6-yl)phenyl]ethanol]",C (a value between 20 and 80 is marked “C”),C (a value greater than 10 °C and less than or equal to 25 °C is marked “C”)
"Cn1nc2nc1-c1cc(ccc1F)Oc1c(F)cc3[nH]ccc3c1CCS(=O)(=O)CC(C)(C)CCCC2(C)c1cccc(CCO)c1 (single isomer, unassigned) [Compound 4B, 2-[3-(22,28-Difluoro-3,6,10,10-tetramethyl-12,12-dioxo-24-oxa-12λ^6-thia-3,4,19,30-tetrazapentacyclo[23.3.1.1^2,5.0^15,23.0^16,20]triaconta-1(29),2(30),4,15,17,20,22,25,27-nonaen-6-yl)phenyl]ethanol]",A (a TECC value less than 12 is marked “A”),A (an ΔTagg value less than or equal to 5 °C is marked “A”)
"Cn1nc2nc1-c1cc(ccc1F)Oc1c(F)cc3[nH]ccc3c1CCS(=O)(=O)CC(C)(C)OCCC2(C)c1cccc(CC(=O)O)c1 (single isomer, unassigned) [Compound 5A, 2-[3-(22,28-Difluoro-3,6,10,10-tetramethyl-12,12-dioxo-9,24-dioxa-12λ^6-thia-3,4,19,30-tetrazapentacyclo[23.3.1.12,5.015,23.016,20]triaconta-1(29),2(30),4,15,17,20,22,25,27-nonaen-6-yl)phenyl]acetic Acid]",B (a value between 12-20 is marked “B”),C (a value greater than 10 °C and less than or equal to 25 °C is marked “C”)
"Cn1nc2nc1-c1cc(ccc1F)Oc1c(F)cc3[nH]ccc3c1CCS(=O)(=O)CC(C)(C)OCCC2(C)c1cccc(CC(=O)O)c1 (single isomer, unassigned) [Compound 5B, 2-[3-(22,28-Difluoro-3,6,10,10-tetramethyl-12,12-dioxo-9,24-dioxa-12λ^6-thia-3,4,19,30-tetrazapentacyclo[23.3.1.12,5.015,23.016,20]triaconta-1(29),2(30),4,15,17,20,22,25,27-nonaen-6-yl)phenyl]acetic Acid]",B (a value between 12-20 is marked “B”),B (a value above 5 °C and less than or equal to 10 °C is marked “B”)
"C[C@H](Cc1cccc(C2(C)CCCC(C)(C)CS(=O)(=O)CCc3c(c(F)cc4[nH]ccc34)Oc3ccc(F)c(c3)-c3nc2nn3C)c1)C(=O)O (single isomer, unassigned) [Compound 6A]",B (a value between 12-20 is marked “B”),C (a value greater than 10 °C and less than or equal to 25 °C is marked “C”)
"C[C@H](Cc1cccc(C2(C)CCCC(C)(C)CS(=O)(=O)CCc3c(c(F)cc4[nH]ccc34)Oc3ccc(F)c(c3)-c3nc2nn3C)c1)C(=O)O (single isomer, unassigned) [Compound 6B]",C (a value between 20 and 80 is marked “C”),A (an ΔTagg value less than or equal to 5 °C is marked “A”)
"C[C@@H](Cc1cccc([C@@]2(C)CCCC(C)(C)CS(=O)(=O)CCc3c(c(F)cc4[nH]ccc34)Oc3ccc(F)c(c3)-c3nc2nn3C)c1)C(=O)O (single isomer, unassigned) [Compound 7]",B (a value between 12-20 is marked “B”),C (a value greater than 10 °C and less than or equal to 25 °C is marked “C”)
